Reference: patent US20100311714A1, “1H-IMIDAZO[4,5-c]QUINOLINONE COMPOUNDS” (priority 2009, published 2010)
Like-named read-outs stand apart in the source and are kept apart here.

Target: T1, PI3K delta (Homo sapiens, UniProt O00329)
T1 construct: for the full-length p110-d subunit are generated and fused by overlapping PCR; His tag (C); made in house; host or cells: baculovirus BV1060; Tn5 (Trichoplusia ni) or TiniPro insect cells
Assay: PI3K delta kinase assay (Kinase-Glo luminescence)
Assay type: biochemical
How it was run: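 Kinase-Glo ATP-depletion luminescence using 10 nM p85(iSH2)-linker-p110δ full-length His-tag construct from insect cells, with 1 μM ATP and 10 μg/mL phosphatidylinositol in 10 mM Tris pH 7.5, 3 mM MgCl2, 50 mM NaCl, 0.05% CHAPS, 1 mM DTT. 60 min room temperature; IC50 from 4-parameter logistic fit over 8 concentrations.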

T1 sequence (O00329 with tags, fused parts or gaps limits assumed): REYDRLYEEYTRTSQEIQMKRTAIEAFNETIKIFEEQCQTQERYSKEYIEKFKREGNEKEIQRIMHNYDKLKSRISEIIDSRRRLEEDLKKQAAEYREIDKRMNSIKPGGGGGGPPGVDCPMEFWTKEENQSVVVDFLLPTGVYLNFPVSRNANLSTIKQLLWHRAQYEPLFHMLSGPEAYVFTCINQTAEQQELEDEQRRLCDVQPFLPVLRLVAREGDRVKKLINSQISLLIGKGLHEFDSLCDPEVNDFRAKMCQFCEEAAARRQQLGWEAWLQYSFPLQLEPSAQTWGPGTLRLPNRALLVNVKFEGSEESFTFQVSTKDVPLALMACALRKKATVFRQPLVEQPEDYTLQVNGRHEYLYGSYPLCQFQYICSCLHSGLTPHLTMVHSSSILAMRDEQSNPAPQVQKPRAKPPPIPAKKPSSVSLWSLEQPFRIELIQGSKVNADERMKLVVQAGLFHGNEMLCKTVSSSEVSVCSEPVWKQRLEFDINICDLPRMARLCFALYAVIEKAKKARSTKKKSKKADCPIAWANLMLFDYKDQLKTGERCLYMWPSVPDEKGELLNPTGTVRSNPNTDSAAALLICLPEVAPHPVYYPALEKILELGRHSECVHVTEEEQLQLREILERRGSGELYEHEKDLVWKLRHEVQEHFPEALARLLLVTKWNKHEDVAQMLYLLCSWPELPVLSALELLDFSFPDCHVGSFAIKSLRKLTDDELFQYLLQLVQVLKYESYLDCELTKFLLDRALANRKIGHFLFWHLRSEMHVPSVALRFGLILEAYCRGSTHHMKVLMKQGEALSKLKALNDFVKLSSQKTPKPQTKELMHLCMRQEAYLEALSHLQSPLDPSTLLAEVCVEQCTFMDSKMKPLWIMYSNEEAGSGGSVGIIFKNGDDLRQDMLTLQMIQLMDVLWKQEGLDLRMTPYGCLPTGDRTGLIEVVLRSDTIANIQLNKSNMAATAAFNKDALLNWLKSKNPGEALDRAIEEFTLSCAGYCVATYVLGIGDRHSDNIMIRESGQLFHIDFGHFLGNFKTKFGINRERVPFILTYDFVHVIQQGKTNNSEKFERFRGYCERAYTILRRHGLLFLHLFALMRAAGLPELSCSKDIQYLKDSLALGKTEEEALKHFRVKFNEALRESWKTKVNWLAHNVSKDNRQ

SMILES	IC50 (read-out: PI3Kdelta/IC50)	IC50 (read-out: EPK_PI3Kdelta/IC50)
COc1ccc(-n2c(=O)n(C)c3cnc4ccc(-c5cnc(N)c(C(F)(F)F)c5)cc4c32)c(OC)n1 [Example 8.1, 8-(6-Amino-5-trifluoromethyl-pyridin-3-yl)-1-(2,6-dimethoxy-pyridin-3-yl)-3-methyl-1,3-dihydro-imidazo[4,5-c]quinolin-2-one]	12 nM	–
COCCN(C)c1ccc(-n2c(=O)n(C)c3cnc4ccc(-c5cnc(N(C)C)nc5)cc4c32)c(C)n1 [Example 15.5, 8-(2-Dimethylamino-pyrimidin-5-yl)-1-{6-[(2-methoxy-ethyl)-methyl-amino]-2-methyl-pyridin-3-yl}-3-methyl-1,3-dihydro-imidazo[4,5-c]quinolin-2-one]	–	44 nM
Cc1ccc(-n2c(=O)n(C)c3cnc4ccc(-c5cnc(N)c(C(F)(F)F)c5)cc4c32)c(C)n1 [Example 14.5, 8-(6-Amino-5-trifluoromethyl-pyridin-3-yl)-1-(2,6-dimethyl-pyridin-3-yl)-3-methyl-1,3-dihydro-imidazo[4,5-c]quinolin-2-one]	–	7 nM
COCCOc1cc(-c2ccc3ncc4c(c3c2)n(-c2ccc(OC)nc2OC)c(=O)n4C)cnc1C [Example 8.9, 1-(2,6-Dimethoxy-pyridin-3-yl)-8-[5-(2-methoxy-ethoxy)-6-methyl-pyridin-3-yl]-3-methyl-1,3-dihydro-imidazo[4,5-c]quinolin-2-one]	–	14 nM
COCCOc1ccc(-n2c(=O)n(C)c3cnc4ccc(-c5cncc(N6CCC6)c5)cc4c32)c(C)n1 [Example 22.2, 8-(5-Azetidin-1-yl-pyridin-3-yl)-1-[6-(2-methoxy-ethoxy)-2-methyl-pyridin-3-yl]-3-methyl-1,3-dihydro-imidazo[4,5-c]quinolin-2-one]	–	101 nM
COCCN(C)c1ccc(-n2c(=O)n(C)c3cnc4ccc(-c5cnc(CO)c(OC)c5)cc4c32)c(C)n1 [Example 15.9, 8-(6-Hydroxymethyl-5-methoxy-pyridin-3-yl)-1-{6-[(2-methoxy-ethyl)-methyl-amino]-2-methyl-pyridin-3-yl}-3-methyl-1,3-dihydro-imidazo[4,5-c]quinolin-2-one]	–	40 nM
CCNc1cc(-c2ccc3ncc4c(c3c2)n(-c2ccc(N3CC(F)(F)C3)nc2C)c(=O)n4C)cnc1CO [Example 24.3, 1-[6-(3,3-Difluoro-azetidin-1-yl)-2-methyl-pyridin-3-yl]-8-(5-ethylamino-6-hydroxymethyl-pyridin-3-yl)-3-methyl-1,3-dihydro-imidazo[4,5-c]quinolin-2-one]	–	55 nM
COc1ccc(-c2ccc3ncc4c(c3c2)n(-c2cccnc2)c(=O)n4C)cn1 [Example 5.4, 8-(6-Methoxy-pyridin-3-yl)-3-methyl-1-pyridin-3-yl-1,3-dihydro-imidazo[4,5-c]quinolin-2-one]	39 nM	–
COc1ccc(-c2ccc3ncc4c(c3c2)n(-c2ncccc2C)c(=O)n4C)cn1 [Example 3.13, 8-(6-Methoxy-pyridin-3-yl)-3-methyl-1-(3-methyl-pyridin-2-yl)-1,3-dihydro-imidazo[4,5-c]quinolin-2-one]	249 nM	–
CNc1cc(-c2ccc3ncc4c(c3c2)n(-c2ccc(C(F)(F)F)nc2C)c(=O)n4C)cnc1CO [Example 33.2, 8-(6-Hydroxymethyl-5-methylamino-pyridin-3-yl)-3-methyl-1-(2-methyl-6-trifluoromethyl-pyridin-3-yl)-1,3-dihydro-imidazo[4,5-c]quinolin-2-one]	–	10 nM
CCOc1ccc(-c2ccc3ncc4c(c3c2)n(-c2ccc(N(C)CCOC)nc2C)c(=O)n4C)cn1 [Example 15.3, 8-(6-Ethoxy-pyridin-3-yl)-1-{6-[(2-methoxy-ethyl)-methyl-amino]-2-methyl-pyridin-3-yl}-3-methyl-1,3-dihydro-imidazo[4,5-c]quinolin-2-one]	–	117 nM
COc1ccc(-c2ccc3ncc4c(c3c2)n(-c2cccnc2OC)c(=O)n4C)cn1 [Example 1.1, 1-(2-Methoxy-pyridin-3-yl)-8-(6-methoxy-pyridin-3-yl)-3-methyl-1,3-dihydro-imidazo[4,5-c]quinolin-2-one]	26 nM	–
CNc1ccc(-c2ccc3ncc4c(c3c2)n(-c2ccc(NC(=O)COC)nc2C)c(=O)n4C)cn1 [Example 20.4, 2-Methoxy-N-{6-methyl-5-[3-methyl-8-(6-methylamino-pyridin-3-yl)-2-oxo-2,3-dihydro-imidazo[4,5-c]quinolin-1-yl]-pyridin-2-yl}-acetamide]	–	78 nM
COCC(=O)Nc1ccc(-n2c(=O)n(C)c3cnc4ccc(-c5cncc(OC(C)C)c5)cc4c32)c(C)n1 [Example 20.5, N-{5-[8-(5-Isopropoxy-pyridin-3-yl)-3-methyl-2-oxo-2,3-dihydro-imidazo[4,5-c]quinolin-1-yl]-6-methyl-pyridin-2-yl}-2-methoxy-acetamide]	–	142 nM
CNc1ccc(-c2ccc3ncc4c(c3c2)n(-c2ccc(N(C)CCOC)nc2C)c(=O)n4C)cn1 [Example 15.4, 1-{6-[(2-Methoxy-ethyl)-methyl-amino]-2-methyl-pyridin-3-yl}-3-methyl-8-(6-methylamino-pyridin-3-yl)-1,3-dihydro-imidazo[4,5-c]quinolin-2-one]	–	36 nM
COc1ncccc1-n1c(=O)n(C)c2cnc3ccc(-c4cnc(N)c(C(F)(F)F)c4)cc3c21 [Example 1.3, 8-(6-Amino-5-trifluoromethyl-pyridin-3-yl)-1-(2-methoxy-pyridin-3-yl)-3-methyl-1,3-dihydro-imidazo[4,5-c]quinolin-2-one]	8 nM	–
Cc1nc(N2CC(F)(F)C2)ccc1-n1c(=O)n(C)c2cnc3ccc(-c4cncc(C(C)(C)O)c4)cc3c21 [Example 24.2, 1-[6-(3,3-Difluoro-azetidin-1-yl)-2-methyl-pyridin-3-yl]-8-[5-(1-hydroxy-1-methyl-ethyl)-pyridin-3-yl]-3-methyl-1,3-dihydro-imidazo[4,5-c]quinolin-2-one]	–	18 nM
Cc1nc(N2CCC(O)C2)ccc1-n1c(=O)n(C)c2cnc3ccc(-c4cncc(OC(C)C)c4)cc3c21 (centres unmarked) [Example 27.1, 1-[6-(3-Hydroxy-pyrrolidin-1-yl)-2-methyl-pyridin-3-yl]-8-(5-isopropoxy-pyridin-3-yl)-3-methyl-1,3-dihydro-imidazo[4,5-c]quinolin-2-one]	–	9 nM
CNc1ccc(-c2ccc3ncc4c(c3c2)n(-c2ccc(N3CCCC3)nc2C)c(=O)n4C)cn1 [Example 25.1, 3-Methyl-8-(6-methylamino-pyridin-3-yl)-1-(2-methyl-6-pyrrolidin-1-yl-pyridin-3-yl)-1,3-dihydro-imidazo[4,5-c]quinolin-2-one]	–	24 nM
COCCOc1ccc(-n2c(=O)n(C)c3cnc4ccc(-c5cnc(COC)c(OC)c5)cc4c32)c(C)n1 [Example 22.3, 1-[6-(2-Methoxy-ethoxy)-2-methyl-pyridin-3-yl]-8-(5-methoxy-6-methoxymethyl-pyridin-3-yl)-3-methyl-1,3-dihydro-imidazo[4,5-c]quinolin-2-one]	–	56 nM
COc1ccc(-c2ccc3ncc4c(c3c2)n(-c2cccnc2)c(=O)n4C)cc1OC [Example 5.2, 8-(3,4-Dimethoxy-phenyl)-3-methyl-1-pyridin-3-yl-1,3-dihydro-imidazo[4,5-c]quinolin-2-one]	72 nM	–
CCOc1ccc(-c2ccc3ncc4c(c3c2)n(-c2ccc(NC(=O)COC)nc2C)c(=O)n4C)cn1 [Example 20.2, N-{5-[8-(6-Ethoxy-pyridin-3-yl)-3-methyl-2-oxo-2,3-dihydro-imidazo[4,5-c]quinolin-1-yl]-6-methyl-pyridin-2-yl}-2-methoxy-acetamide]	–	247 nM
CNc1ccc(-c2ccc3ncc4c(c3c2)n(-c2cccnc2OC)c(=O)n4C)cn1 [Example 1.4, 1-(2-Methoxy-pyridin-3-yl)-3-methyl-8-(6-methylamino-pyridin-3-yl)-1,3-dihydro-imidazo[4,5-c]quinolin-2-one]	81 nM	–
Cc1cccnc1-n1c(=O)n(C)c2cnc3ccc(-c4cnc5ccccc5c4)cc3c21 [Example 3.8, 3-Methyl-1-(3-methyl-pyridin-2-yl)-8-quinolin-3-yl-1,3-dihydro-imidazo[4,5-c]quinolin-2-one]	264 nM	–
Cc1nc(N2CC(F)(F)C(F)(F)C2)ccc1-n1c(=O)n(C)c2cnc3ccc(-c4cncc(C(C)(C)O)c4)cc3c21 [Example 35.1, 8-[5-(1-Hydroxy-1-methyl-ethyl)-pyridin-3-yl]-3-methyl-1-[2-methyl-6-(3,3,4,4-tetrafluoro-pyrrolidin-1-yl)-pyridin-3-yl]-1,3-dihydro-imidazo[4,5-c]quinolin-2-one]	–	5 nM
CCOc1ccc(-c2ccc3ncc4c(c3c2)n(-c2cncc(C)c2)c(=O)n4C)cn1 [Example 17.1, 8-(6-Ethoxy-pyridin-3-yl)-3-methyl-1-(5-methyl-pyridin-3-yl)-1,3-dihydro-imidazo[4,5-c]quinolin-2-one]	–	275 nM
COCCN(C)c1ccc(-n2c(=O)n(C)c3cnc4ccc(-c5cnc(N)c(C(F)(F)F)c5)cc4c32)c(C)n1 [Example 15.1, 8-(6-Amino-5-trifluoromethyl-pyridin-3-yl)-1-{6-[(2-methoxy-ethyl)-methyl-amino]-2-methyl-pyridin-3-yl}-3-methyl-1,3-dihydro-imidazo[4,5-c]quinolin-2-one]	–	7 nM
CCOc1cc(-c2ccc3ncc4c(c3c2)n(-c2cccnc2C)c(=O)n4C)cnc1C [Example 2.22, 8-(5-Ethoxy-6-methyl-pyridin-3-yl)-3-methyl-1-(2-methyl-pyridin-3-yl)-1,3-dihydro-imidazo[4,5-c]quinolin-2-one]	–	61 nM
CCOc1ccc(-c2ccc3ncc4c(c3c2)n(-c2cccnc2OC)c(=O)n4C)cn1 [Example 1.5, 8-(6-Ethoxy-pyridin-3-yl)-1-(2-methoxy-pyridin-3-yl)-3-methyl-1,3-dihydro-imidazo[4,5-c]quinolin-2-one]	166 nM	–
